In patent US20170231929A1, “METHOD FOR ENHANCING IMMUNE CELL FUNCTION AND METHOD FOR ASSESSING IMMUNE CELL MULTIFUNCTIONALITY” (NATIONAL UNIVERSITY CORPORATION OKAYAMA UNIVERSITY, priority 2014, published 2017):

System: CD8^+T cells
Experiment: Multifunctionality of CD8^+T cells of metastatic lung cancer patients (stage IV) after metformin treatment of PBMC (flow cytometer)
Format: cell-based, human
Conditions: for Decrease, IFNγ 1-cytokine-producing cell / Decrease, IFNγ/IL-2 2-cytokine-producing cell / Decrease, IFNγ/TNFα 2-cytokine-producing cell / Decrease, IFNγ/TNFα/IL2 3-cytokine-producing cell / Increase, IFNγ 1-cytokine-producing cell / Increase, IFNγ/IL-2 2-cytokine-producing cell / Increase, IFNγ/TNFα 2-cytokine-producing cell / Increase, IFNγ/TNFα/IL2 3-cytokine-producing cell / No Change, IFNγ 1-cytokine-producing cell / No Change, IFNγ/IL-2 2-cytokine-producing cell / No Change, IFNγ/TNFα 2-cytokine-producing cell / No Change, IFNγ/TNFα/IL2 3-cytokine-producing cell: Cancer Patients (stage IV)
Experimental: 1. Peripheral blood was obtained from a test subject, and PBMC was separated by a density-gradient centrifugation using a lymphocyte-separating reagent Ficoll-Paque® (GE Healthcare). 3 mL of Ficoll-Paque® was dispensed in a 15-mL tube. 8 mL of the peripheral blood was gently placed on the reagent. At this time, care should be taken not to mix Ficoll-Paque® with the peripheral blood. Centrifugation was performed at 400 g for 30 minutes, thereby separating PBMC. 2. The separated PBMC was preserved in a −150° C. freezer or liquid nitrogen using Bambang Car cell preservation liquid by adjusting the cell number to 2.0×10^6 cell/tube. 3. In the test, the thawed PBMC was cultured for 1 to 10 hours in the presence or absence of […]. The culture was performed using a 24-well plate, and the cell number was adjusted to about 5.0×10^5 cell/well. 4. The cells were collected after 1 to 10 hours, washed with medium, and cultured in the presence of a cell activation reagent (potent nanomolar activator of protein kinase C (PMA, 50 ng/mL), ionomycin (1 μM)) for 6 hours, thereby non-specifically stimulating T cells. At this time, BD Gorgi Stop™ was added to keep the produced cytokines inside the cells. 5. The cells were isolated and washed twice with a cell-staining buffer. First, staining of CD8, PD-1, Tim-3, which are molecules expressed on the T cell surface, was performed. In the staining, a staining buffer was added in an amount of 50 μL per sample. The culture was performed at 4° C. for 30 minutes. 6. The cells were collected and washed twice with a cell-staining buffer. 500 μL of BD Cytofix/Cytoperm was added and cultured at 4° C. for 30 minutes. 7. The cells were collected and washed twice with BD Perm/Wash™. Staining of cytokines IL-2, TNFα, and IFNγ was performed. In the staining, BD Perm/Wash™ was added in an amount of 50 μL per sample. The culture was performed at 4° C. for 30 minutes. 8. The cells were collected and washed twice with BD Perm/Wash™, and 200 μL of BD Perm/Wash™ was added. 9. Analysis was performed using a FACSCanto™ II flow cytometer (Becton, Dickinson and Company).
Among the PBMC treated with PMA/ionomycin in the method shown in (2) above, first, a gate was applied to CD8^+T cells using a FACSCanto™ II flow cytometer (Becton, Dickinson and Company), and then […] were removed by FSC-A and FSC-H. Using parameters FSC-A and SSC-A, a gate was applied to a lymphocyte group, thereby analyzing expression of PD-1 and Tim-3. Further, intracellular cytokines IFNγ, TNFα, and IL-2 were stained, and multifunctionality of CD8^+T cells contained in the PBMC was analyzed (FIG. 1).
This Example analyzed test results regarding recovery of multifunctionality of CD8^+T cells by metformin in 10 healthy subjects and five metastatic lung cancer patients (stage IV) by the same method as in Example 1. As in Table 3, in Table 3, in addition to the total CD8^+T cells (total CD8T), cytokine production abilities were confirmed in four kinds of CD8^+T cells, i.e., PD-1-positive, Tim-3-negative CD8^+T cells, PD-1-positive, Tim-3-positive CD8^+T cells, PD-1-negative, Tim-3-positive CD8^+T cells, and PD-1-negative, Tim-3-negative CD8^+T cells (Table 4). Cytokine production ability refers to cytokine production ratios of three kinds of cytokines (A), IFNγ/TNFα/IL-2, two kinds of cytokines (B), IFNγ/TNFα, two kinds of cytokines (C), FNγ/IL-2, and one kind of cytokine (D), IFNγ.

**Q.** For `CN(C)C(=N)N=C(N)N` [metformin], which “Decrease, IFNγ 1-cytokine-producing cell” value (PD-1+, Tim-3+, patients/total) is on record?
**A.** 1/5

**Q.** And the “Decrease, IFNγ/IL-2 2-cytokine-producing cell” value (PD-1+, Tim-3+, patients/total)?
**A.** 1/5

**Q.** And the “Decrease, IFNγ/TNFα 2-cytokine-producing cell” value (PD-1+, Tim-3+, patients/total)?
**A.** 1/5

**Q.** What about the “Decrease, IFNγ/TNFα/IL2 3-cytokine-producing cell” value (PD-1+, Tim-3+, patients/total) of the same compound?
**A.** 0/5

**Q.** What about the “Increase, IFNγ 1-cytokine-producing cell” value (PD-1+, Tim-3+, patients/total) of the same compound?
**A.** 1/5

**Q.** What about the “Increase, IFNγ/IL-2 2-cytokine-producing cell” value (PD-1+, Tim-3+, patients/total) of the same compound?
**A.** 1/5

**Q.** What about the “Increase, IFNγ/TNFα 2-cytokine-producing cell” value (PD-1+, Tim-3+, patients/total) of the same compound?
**A.** 1/5

**Q.** And the “Increase, IFNγ/TNFα/IL2 3-cytokine-producing cell” value (PD-1+, Tim-3+, patients/total)?
**A.** 0/5

**Q.** What about the “No Change, IFNγ 1-cytokine-producing cell” value (PD-1+, Tim-3+, patients/total) of the same compound?
**A.** 3/5

**Q.** And the “No Change, IFNγ/IL-2 2-cytokine-producing cell” value (PD-1+, Tim-3+, patients/total)?
**A.** 3/5

**Q.** What about the “No Change, IFNγ/TNFα 2-cytokine-producing cell” value (PD-1+, Tim-3+, patients/total) of the same compound?
**A.** 3/5

**Q.** What about the “No Change, IFNγ/TNFα/IL2 3-cytokine-producing cell” value (PD-1+, Tim-3+, patients/total) of the same compound?
**A.** 5/5

**Q.** And the “Decrease, IFNγ 1-cytokine-producing cell” value (PD-1+, Tim-3−, patients/total)?
**A.** 1/5

**Q.** What about the “Decrease, IFNγ/IL-2 2-cytokine-producing cell” value (PD-1+, Tim-3−, patients/total) of the same compound?
**A.** 1/5

**Q.** And the “Decrease, IFNγ/TNFα 2-cytokine-producing cell” value (PD-1+, Tim-3−, patients/total)?
**A.** 2/5

**Q.** What about the “Decrease, IFNγ/TNFα/IL2 3-cytokine-producing cell” value (PD-1+, Tim-3−, patients/total) of the same compound?
**A.** 0/5

**Q.** What about the “Increase, IFNγ 1-cytokine-producing cell” value (PD-1+, Tim-3−, patients/total) of the same compound?
**A.** 0/5

**Q.** And the “Increase, IFNγ/IL-2 2-cytokine-producing cell” value (PD-1+, Tim-3−, patients/total)?
**A.** 4/5

**Q.** What about the “Increase, IFNγ/TNFα 2-cytokine-producing cell” value (PD-1+, Tim-3−, patients/total) of the same compound?
**A.** 1/5

**Q.** What about the “Increase, IFNγ/TNFα/IL2 3-cytokine-producing cell” value (PD-1+, Tim-3−, patients/total) of the same compound?
**A.** 4/5

**Q.** And the “No Change, IFNγ 1-cytokine-producing cell” value (PD-1+, Tim-3−, patients/total)?
**A.** 4/5

**Q.** What about the “No Change, IFNγ/IL-2 2-cytokine-producing cell” value (PD-1+, Tim-3−, patients/total) of the same compound?
**A.** 0/5

**Q.** What about the “No Change, IFNγ/TNFα 2-cytokine-producing cell” value (PD-1+, Tim-3−, patients/total) of the same compound?
**A.** 2/5

**Q.** And the “No Change, IFNγ/TNFα/IL2 3-cytokine-producing cell” value (PD-1+, Tim-3−, patients/total)?
**A.** 1/5

**Q.** What about the “Decrease, IFNγ 1-cytokine-producing cell” value (PD-1−, Tim-3+, patients/total) of the same compound?
**A.** 2/5

**Q.** And the “Decrease, IFNγ/IL-2 2-cytokine-producing cell” value (PD-1−, Tim-3+, patients/total)?
**A.** 3/5

**Q.** What about the “Decrease, IFNγ/TNFα 2-cytokine-producing cell” value (PD-1−, Tim-3+, patients/total) of the same compound?
**A.** 2/5

**Q.** What about the “Decrease, IFNγ/TNFα/IL2 3-cytokine-producing cell” value (PD-1−, Tim-3+, patients/total) of the same compound?
**A.** 0/5

**Q.** And the “Increase, IFNγ 1-cytokine-producing cell” value (PD-1−, Tim-3+, patients/total)?
**A.** 3/5

**Q.** What about the “Increase, IFNγ/IL-2 2-cytokine-producing cell” value (PD-1−, Tim-3+, patients/total) of the same compound?
**A.** 0/5

**Q.** What about the “Increase, IFNγ/TNFα 2-cytokine-producing cell” value (PD-1−, Tim-3+, patients/total) of the same compound?
**A.** 1/5

**Q.** And the “Increase, IFNγ/TNFα/IL2 3-cytokine-producing cell” value (PD-1−, Tim-3+, patients/total)?
**A.** 0/5

**Q.** And the “No Change, IFNγ 1-cytokine-producing cell” value (PD-1−, Tim-3+, patients/total)?
**A.** 0/5

**Q.** What about the “No Change, IFNγ/IL-2 2-cytokine-producing cell” value (PD-1−, Tim-3+, patients/total) of the same compound?
**A.** 2/5

**Q.** And the “No Change, IFNγ/TNFα 2-cytokine-producing cell” value (PD-1−, Tim-3+, patients/total)?
**A.** 2/5

**Q.** And the “No Change, IFNγ/TNFα/IL2 3-cytokine-producing cell” value (PD-1−, Tim-3+, patients/total)?
**A.** 5/5

**Q.** And the “Decrease, IFNγ 1-cytokine-producing cell” value (PD-1−, Tim-3−, patients/total)?
**A.** 2/5

**Q.** What about the “Decrease, IFNγ/IL-2 2-cytokine-producing cell” value (PD-1−, Tim-3−, patients/total) of the same compound?
**A.** 2/5

**Q.** And the “Decrease, IFNγ/TNFα 2-cytokine-producing cell” value (PD-1−, Tim-3−, patients/total)?
**A.** 2/5

**Q.** What about the “Decrease, IFNγ/TNFα/IL2 3-cytokine-producing cell” value (PD-1−, Tim-3−, patients/total) of the same compound?
**A.** 0/5

**Q.** And the “Increase, IFNγ 1-cytokine-producing cell” value (PD-1−, Tim-3−, patients/total)?
**A.** 1/5

**Q.** What about the “Increase, IFNγ/IL-2 2-cytokine-producing cell” value (PD-1−, Tim-3−, patients/total) of the same compound?
**A.** 1/5

**Q.** What about the “Increase, IFNγ/TNFα 2-cytokine-producing cell” value (PD-1−, Tim-3−, patients/total) of the same compound?
**A.** 1/5

**Q.** What about the “Increase, IFNγ/TNFα/IL2 3-cytokine-producing cell” value (PD-1−, Tim-3−, patients/total) of the same compound?
**A.** 2/5

**Q.** What about the “No Change, IFNγ 1-cytokine-producing cell” value (PD-1−, Tim-3−, patients/total) of the same compound?
**A.** 2/5

**Q.** What about the “No Change, IFNγ/IL-2 2-cytokine-producing cell” value (PD-1−, Tim-3−, patients/total) of the same compound?
**A.** 2/5

**Q.** What about the “No Change, IFNγ/TNFα/IL2 3-cytokine-producing cell” value (PD-1−, Tim-3−, patients/total) of the same compound?
**A.** 3/5

**Q.** What about the “Decrease, IFNγ 1-cytokine-producing cell” value (Total CD8T, patients/total) of the same compound?
**A.** 3/5

**Q.** What about the “Decrease, IFNγ/IL-2 2-cytokine-producing cell” value (Total CD8T, patients/total) of the same compound?
**A.** 0/5

**Q.** And the “Decrease, IFNγ/TNFα 2-cytokine-producing cell” value (Total CD8T, patients/total)?
**A.** 4/5

**Q.** What about the “Decrease, IFNγ/TNFα/IL2 3-cytokine-producing cell” value (Total CD8T, patients/total) of the same compound?
**A.** 0/5

**Q.** And the “Increase, IFNγ 1-cytokine-producing cell” value (Total CD8T, patients/total)?
**A.** 0/5

**Q.** What about the “Increase, IFNγ/IL-2 2-cytokine-producing cell” value (Total CD8T, patients/total) of the same compound?
**A.** 1/5

**Q.** What about the “Increase, IFNγ/TNFα 2-cytokine-producing cell” value (Total CD8T, patients/total) of the same compound?
**A.** 1/5

**Q.** And the “Increase, IFNγ/TNFα/IL2 3-cytokine-producing cell” value (Total CD8T, patients/total)?
**A.** 1/5

**Q.** What about the “No Change, IFNγ 1-cytokine-producing cell” value (Total CD8T, patients/total) of the same compound?
**A.** 2/5

**Q.** And the “No Change, IFNγ/IL-2 2-cytokine-producing cell” value (Total CD8T, patients/total)?
**A.** 4/5

**Q.** And the “No Change, IFNγ/TNFα 2-cytokine-producing cell” value (Total CD8T, patients/total)?
**A.** 0/5

**Q.** And the “No Change, IFNγ/TNFα/IL2 3-cytokine-producing cell” value (Total CD8T, patients/total)?
**A.** 4/5

**Q.** What about the “Increase + No Change, IFNγ/TNFα/IL2, share of patients” value (Total CD8T, Patients (stage IV)) of the same compound?
**A.** 100%

**Q.** What about the “Increase + No Change, IFNγ/TNFα/IL2” value (Total CD8T, Patients (stage IV), patients/total) of the same compound?
**A.** 5/5

**Q.** And the “decrease in multifunctionality by the metformin treatment (three kinds of cytokines)” value (cancer patients (stage IV))?
**A.** very small (zero)
